Laboratory results reported in patent US12128040B2, “Selective estrogen receptor degraders” (Eli Lilly and Company, priority 2018, dated 2024).

How the values were obtained:
ERα receptor = assay: PRα induction assay in MCF7 cells (ERα agonism); format: cell-based; conditions: Homo sapiens, 24 hours, agonist mode, read-out: Relative IC50 (μM), PRα induction
Protocol: The purpose of the following PRα induction assay is to determine whether a test compound has agonistic activity against ERα receptor (an agonist would be expected to activate the receptor.)
Culture MCF7 (purchased from ATCC HTB-22) in DMEM media supplemented with 10% FBS, 0.01 mg/mL human insulin 1 and 1% penicillin/streptomycin antibiotics and plate the cells (prior to becoming 70% confluent) in 384-well flat-bottom plates at a density of 4,000 cells per well in 20 μL volume in DMEM phenol red free media containing 10% FBS (charcoal stripped). Incubate the cells overnight in a cell culture incubator (5% CO2, 95% relative humidity at 37° C.) and allow the cells to attach to the plate. The following day, dose the cells with test compound. Use an Echo 555 acoustic dispenser to prepare compound serial dilutions (1:3) in a range from 6 μM to 0.0003 μM. […]
The following day, wash cells with PBS 0.05% TWEEN® 20 (2×20 μL) and incubate with secondary antibody (20 μL/well) (1:1000 dilution, Goat anti-rabbit IgM ALEXA FLUOR™ 488) in PBS 1% BSA for 105 minutes at room temperature. […] Scan plates with ACUMEN EXPLORER™ [Laser-scanning fluorescence microplate cytometer manufactured by TTP LABTECH LTD] to measure progesterone receptor alpha. […]

[1] = tested on: PGR (Progesterone Receptor alpha) gene expression; assay: In vivo target inhibition (IVTI) assay (PGR RT-qPCR) in MCF7 tumors; design: species or system mice; conditions: MCF7 tumor xenograft, 30 mg/kg orally, 24 hours
Protocol: The purpose of this IVTI assay is to measure the ability of a test compound (SERD) to inhibit PGR (Progesterone Receptor alpha) gene expression (transcription) downstream of ERα in xenograft tumors implanted in mice.
Implant female NOD SCID mice (22-25 g) from Envigo RMS, Inc., Madison, Wisconsin with 5×10e^6 MCF7 ER+ve breast cancer cells (ATCC, #HTB-22) subcutaneously in the right flank region in 1:1 HBSS+[…]™ solution (200 μL). Implant a […] pellet (0.18 mg/pellet, 90 day release, from Innovative research) subcutaneously 1 day prior to tumor cell implantation. […] Sacrifice animals using isoflurane anesthesia plus cervical dislocation. Flash freeze tumors and store at −80° C. until processing for RNA isolation and RT-qPCR assay. Collect blood in EDTA tubes, spin down for plasma, and freeze at −80° C. in a 96-well plate. Determine test compound exposures using mass spectrometry.
Pulverize tumors in liquid nitrogen and lyse in 1×RNA lysis buffer (from RNA isolation kits) using Matrix D beads (MP Biomedical, #6913-500) in a FASTPREP-24™ Cell Disrupter machine (MP Biomedical). […] Measure isolated RNA concentration by diluting samples in RNase free water and measuring the absorbance at 260 nm on a plate reader (SpectraMax190). Subtract the average 260 nm absorbance measurement of the blank (RNase free water only) from the 260 nm measurements of all other RNA samples. […]

IC50 (ERα receptor): > 2 µM
SMILES: O=C(c1ccc(OCCN2CC(CF)C2)cc1)c1c(-c2ccc(C(F)(F)F)cc2F)cnc2cc(O)ccc12 [Example 1, (4-{2-[3-(Fluoromethyl)azetidin-1-yl]ethoxy}phenyl){3-[2-fluoro-4-(trifluoromethyl)phenyl]-7-hydroxyquinolin-4-yl}methanone]
inhibition of PRα (PGR) expression [1]: 57%
